Several values for one entry are separate records, joined by “and”; a condition that tells them apart may be missing. Equal values may be shown once. Read-outs that look alike come from different tables or passages of the source.
How the values were obtained:
[1] = Brain and plasma concentrations in mice after intraperitoneal administration (LC-MS-MS), non-compartmental analysis; assay type: in vivo; settings: for [drug],brain (free base equivalent) / [drug],plasma (free base equivalent): listed as nor-BNI.2HCl.H2O; for [drug],brain (free base equivalent) / [drug],plasma (free base equivalent) / AUC(0-inf) / concentration at 0.5 h / concentration at 1 h / concentration at 2 h / concentration at 4 h / concentration at 24 h / CL/F / Vd/F: 10 mg/kg; for AUC(0-inf) / Kp uu / Kp / MRT inf / concentration at 0.5 h / concentration at 1 h / concentration at 2 h / Tmax / AUC(0-t) / Cmax / k el / half-life / concentration at 4 h / concentration at 24 h / CL/F / Vd/F: male, mouse; for MRT inf: read-out: MRT 0-inf_obs; for k el: read-out: Lambda_z (converted); for half-life: read-out: t1/2 (converted)
Procedure: Doses are reported by weight of the specified salt. […] Body mass was measured to ±0.1 g.
Mice were sacrificed by cervical dislocation, then decapitated for collection of brain and blood samples. Trunk blood was collected in 1.5 mL polypropylene micro-centrifuge tubes, shaken with a few crystals of EDTA and cooled in ice-water. Samples were centrifuged at 14,000 rpm (revolutions per minute) for 15 minutes at 3 °C, then stored in glass sample vials at −20 °C until analysis. Brains were removed and immersed for 30 seconds in 2-methylbutane over dry ice, then stored in polypropylene tubes at −20 °C until sample preparation. Sample tubes were thawed in ice-water, distilled water was added (2:1 by weight) and the brain homogenized with a probe sonicator for 3 minutes over ice-water (Fisher Sonic Dismembrator 300 at 35% power). The probe was rinsed with ethanol and distilled water between samples. Brain homogenate was stored in glass sample vials at −20 °C until analysis by LC-MS-MS.
(§1) Drug concentrations (ng mL^-1) refer to the free base, and were measured by liquid chromatography-tandem mass spectrometry (LC-MS-MS) as described previously. Briefly, samples were shaken with 3 volumes of methanol and centrifuged at 3000 g. Aliquots of the supernatants were diluted with 5 volumes of water containing an appropriate internal standard. Extracts from in vitro and in vivo experiments were analyzed by multiple reaction monitoring on an API3000 or API4000 LC-MS-MS system with electrospray ion source, controlled and analyzed using the Analyst software package (Applied Biosystems, Foster City, CA). Chromatography was conducted on a Sprite Armor C18 analytical column (20 × 2.1 mm, 10 μm particle size, Analytical Sales and Products, Pompton Plains, NJ) with a 0.5 μm PEEK guard filter. Compounds were eluted with a gradient from 2% to 95% acetonitrile in water, both containing 0.1% formic acid. Compounds were detected in positive ion mode, tuned to the mass transition with the largest intensity. Analyte concentrations were determined by comparison of analyte:internal standard peak area ratios to those of standards prepared in the appropriate matrices.
For calculation of mean concentrations, the earliest values below the MRC were substituted by MRC ÷ 2, as recommended elswhere. Pharmacokinetic parameters were calculated from mean concentrations using PKSolver, employing non-compartmental analysis for extravascular administration. Curves in figures were fitted using Origin 8.5 (OriginLab, Northampton, MA) using 2-compartment models. Confidence intervals and two-tailed p values (unpaired t test) were calculated using Graphpad Quickcalcs. One outlier was identified using Grubbs' test (p < 0.01) and excluded from the analysis; see Additional file 1.

μ opioid receptor = system: μ opioid receptor; parameters: method as in PMID 1326932; settings: after subcutaneous administration; cited from earlier work
Water solubility = assay type: physicochemical; settings: distilled water, thermodynamic from solid, 25 °C, salt tested
Procedure: Distilled water was added slowly by microsyringe to 10–15 mg of drug in a glass vial, swirling until no solid was visible.

[2] = Octanol-buffer distribution (log D7.4); assay type: physicochemical; settings: 1-octanol/PBS
Procedure: Phosphate-buffered saline (PBS, pH 7.4) and 1-octanol were mutually saturated by vigorous stirring at room temperature for 18 h, and then separated. Drug solutions of 0.1 mg mL^-1 in PBS were prepared, and 500 μL aliquots were added to 1.5 mL micro-centrifuge tubes with an equal volume of 1-octanol. Three samples were vortex-mixed for 1, 10 and 30 minutes respectively, then centrifuged at room temperature (12,000 rpm for 15 minutes). Aliquots of the upper octanol layer were removed by pipette. A disposable syringe was inserted while bubbling air through the upper layer, an aliquot of the lower PBS layer withdrawn, and the needle removed before transferring. Samples were stored in glass sample vials at −20 °C until analysis by LC-MS-MS.
as §1

[3] = parameters: method as in earlier work; settings: preliminary reports; cited from earlier work
[4] = 0.5 h, 10 mg/kg i.p., individual mice
[5] = 1 h, 10 mg/kg i.p., individual mice
[6] = 2 h, 10 mg/kg i.p., individual mice
[7] = Swiss-Webster, ip, brain NCA, 10 mg/kg i.p.
[8] = Swiss-Webster, ip, plasma NCA, 10 mg/kg i.p.
[9] = within 1 hour, 10 mg kg^-1 i.p.
[10] = within 4 hours, 10 mg kg^-1 i.p.

Oc1ccc2c3c1O[C@H]1c4[nH]c5c(c4C[C@@]4(O)[C@@H](C2)N(CC2CC2)CC[C@]314)C[C@@]1(O)[C@H]2Cc3ccc(O)c4c3[C@@]1(CCN2CC1CC1)[C@H]5O4 [nor-BNI, norbinaltorphimine]
Time of maximal mean plasma level ([1]; 10 mg kg^-1 i.p., mice): 30 min | [drug],brain (free base equivalent) [1, 4]: 477 ng/g and 471 ng/g and 309 ng/g and 609 ng/g and 438 ng/g | [drug],plasma (free base equivalent) [1, 4]: 6130 ng/mL and 4810 ng/mL and 2110 ng/mL and 3050 ng/mL | [drug],brain (free base equivalent) [1, 5]: 250 ng/g and 396 ng/g and 299 ng/g and 372 ng/g and 207 ng/g | [drug],plasma (free base equivalent) [1, 5]: 3060 ng/mL and 2060 ng/mL and 1510 ng/mL and 1140 ng/mL and 1170 ng/mL | [drug],brain (free base equivalent) [1, 6]: <120 ng/g | [drug],plasma (free base equivalent) [1, 6]: 343 ng/mL and 309 ng/mL | [drug],plasma (free base equivalent) ([1]; 4 h, 10 mg/kg i.p., individual mice): 173 ng/mL and 156 ng/mL | [drug],plasma (free base equivalent) ([1]; 24 h, 10 mg/kg i.p., individual mice): 63 ng/mL and 50 ng/mL and 14 ng/mL | Peak unbound brain level ([1]; at 30 minutes, 10 mg kg^-1 i.p., estimate): ≤ 26 nM | AUMC 0-inf_obs ([1]; brain NCA, 10 mg/kg i.p.): 712.925 ng/ml*h^2 | Tlag ([1]; brain NCA, 10 mg/kg i.p.): 0 h | C max,brain ([1]; brain, 10 mg kg^-1 i.p., mice): 443 ng/mL | AUC(0-inf) ([1]; Swiss-Webster (Crl:CFW(SW)), brain, ip, brain NCA, 10 mg/kg i.p., read-out: AUC 0-inf_obs): 593 ng·h/mL | Kp uu ([1]; Swiss-Webster (Crl:CFW(SW)), brain/plasma (unbound), ip, supplement, 10 mg/kg i.p., read-out: Kp,uu,brain (AUC0–∞,brain,u / AUC0–∞,p,u)): < 0.00725 | Kp ([1]; Swiss-Webster (Crl:CFW(SW)), brain/plasma, ip, supplement, 10 mg/kg i.p., read-out: Kp,brain (AUC0–∞,brain / AUC0–∞,p)): 0.0924 | MRT inf ([1]; Swiss-Webster (Crl:CFW(SW)), ip, brain NCA, 10 mg/kg i.p.): 72.1 min | Kp uu ([1]; Swiss-Webster, brain and plasma (unbound), ip, 10 mg kg^-1 i.p., mice, read-out: Cmax,brain,u/Cmax,p,u): < 0.009 | Kp uu ([1]; Swiss-Webster, brain and plasma (unbound), ip, 10 mg kg^-1 i.p., mice, read-out: K p,uu,brain (AUC0–∞,brain,u/AUC0–∞,p,u)): < 0.007 | Kp ([1]; Swiss-Webster, brain and plasma, ip, 10 mg kg^-1 i.p., mice, read-out: Cmax,brain/Cmax,p): 0.11 | Kp ([1]; Swiss-Webster, brain and plasma, ip, 10 mg kg^-1 i.p., mice, read-out: K p,brain (AUC0–∞,brain/AUC0–∞,p)): 0.09 | concentration at 0.5 h ([1]; Swiss-Webster, brain, intraperitoneal, 0.5 h, read-out: Conc (brain, NCA input)): 443 ng/mL | concentration at 1 h ([1]; Swiss-Webster, brain, intraperitoneal, 1 h, read-out: Conc (brain, NCA input)): 308 ng/mL | concentration at 2 h ([1]; Swiss-Webster, brain, intraperitoneal, 2 h, read-out: Conc (brain, NCA input)): 96.3 ng/mL | concentration at 0.5 h ([1]; Swiss-Webster, brain, ip, 0.5 h, 10 mg/kg i.p., individual mice, read-out: [drug],brain (free base equivalent)): 354 ng/g | concentration at 0.5 h ([1]; Swiss-Webster, brain, ip, 0.5 h, 10 mg/kg i.p., read-out: mean (brain)): 443 ng/g | concentration at 1 h ([1]; Swiss-Webster, brain, ip, 1 h, 10 mg/kg i.p., individual mice, read-out: [drug],brain (free base equivalent)): 324 ng/g | concentration at 1 h ([1]; Swiss-Webster, brain, ip, 1 h, 10 mg/kg i.p., read-out: mean (brain)): 308 ng/g | concentration at 2 h ([1]; Swiss-Webster, brain, ip, 2 h, 10 mg/kg i.p., individual mice, read-out: [drug],brain (free base equivalent)): 169 ng/g | concentration at 2 h ([1]; Swiss-Webster, brain, ip, 2 h, 10 mg/kg i.p., <MRC substituted by MRC/2, read-out: mean (brain)): 96 ng/g | AUC(0-inf) ([1]; Swiss-Webster, brain, ip, brain, 10 mg kg^-1 i.p., non-compartmental analysis, read-out: AUC 0–∞,brain): 593 ng·h/mL | Tmax ([1]; Swiss-Webster, in vivo, ip, ·2HCl salts, 10 mg kg^-1 i.p., mice): 30 min | AUC(0-t) [1, 7]: 501 ng·h/mL | Tmax [1, 7]: 30 min | Cmax ([1]; Swiss-Webster, ip, brain NCA, 10 mg/kg i.p., read-out: Cmax): 443 ng/mL | k el [1, 7]: 0.000288 s⁻¹ | half-life [1, 7]: 40.1 min | AUC(0-t) [1, 8]: 5910 ng·h/mL | Tmax [1, 8]: 30 min | k el [1, 8]: 2.28e-05 s⁻¹ | MRT inf [1, 8]: 360 min | half-life [1, 8]: 507 min | Cmax ([1]; Swiss-Webster, ip, plasma, 10 mg kg^-1 i.p., mice, read-out: C max,p): 4020 ng/mL | concentration at 0.5 h ([1]; Swiss-Webster, plasma, intraperitoneal, 0.5 h, read-out: Conc (plasma, NCA input)): 4020 ng/mL | concentration at 1 h ([1]; Swiss-Webster, plasma, intraperitoneal, 1 h, read-out: Conc (plasma, NCA input)): 1790 ng/mL | concentration at 2 h ([1]; Swiss-Webster, plasma, intraperitoneal, 2 h, read-out: Conc (plasma, NCA input)): 339 ng/mL | concentration at 4 h ([1]; Swiss-Webster, plasma, intraperitoneal, 4 h, read-out: Conc (plasma, NCA input)): 148 ng/mL | concentration at 24 h ([1]; Swiss-Webster, plasma, intraperitoneal, 24 h, read-out: Conc (plasma, NCA input)): 42 ng/mL | concentration at 0.5 h ([1]; Swiss-Webster, plasma, ip, 0.5 h, 10 mg/kg i.p., read-out: mean (plasma)): 4020 ng/mL | concentration at 1 h ([1]; Swiss-Webster, plasma, ip, 1 h, 10 mg/kg i.p., read-out: mean (plasma)): 1790 ng/mL | concentration at 2 h ([1]; Swiss-Webster, plasma, ip, 2 h, 10 mg/kg i.p., individual mice, read-out: [drug],plasma (free base equivalent)): 366 ng/mL | concentration at 2 h ([1]; Swiss-Webster, plasma, ip, 2 h, 10 mg/kg i.p., read-out: mean (plasma)): 339 ng/mL | concentration at 4 h ([1]; Swiss-Webster, plasma, ip, 4 h, 10 mg/kg i.p., individual mice, read-out: [drug],plasma (free base equivalent)): 116 ng/mL | concentration at 4 h ([1]; Swiss-Webster, plasma, ip, 4 h, 10 mg/kg i.p., read-out: mean (plasma)): 148 ng/mL | concentration at 24 h ([1]; Swiss-Webster, plasma, ip, 24 h, 10 mg/kg i.p., <MRC substituted by MRC/2, read-out: mean (plasma)): 42 ng/mL | AUC(0-inf) ([1]; Swiss-Webster, plasma, ip, plasma NCA, 10 mg/kg i.p., read-out: AUC 0-inf_obs): 6420 ng·h/mL | CL/F ([1]; Swiss-Webster, plasma, ip, plasma NCA, 10 mg/kg i.p., read-out: Cl/F_obs (converted)): 26 mL/min/kg | Vd/F ([1]; Swiss-Webster, plasma, ip, plasma NCA, 10 mg/kg i.p., read-out: Vz/F_obs): 19 L/kg | AUC(0-inf) ([1]; Swiss-Webster, plasma, ip, plasma, 10 mg kg^-1 i.p., non-compartmental analysis, read-out: AUC 0–∞,p): 6420 ng·h/mL | CL/F ([1]; Swiss-Webster, plasma, ip, plasma, 10 mg kg^-1 i.p., non-compartmental analysis, read-out: CL/F (converted)): 28.3 mL/min/kg | Vd/F ([1]; Swiss-Webster, plasma, ip, plasma, 10 mg kg^-1 i.p., non-compartmental analysis, read-out: V z /F): 19 L/kg | AUMC 0-inf_obs ([1]; plasma NCA, 10 mg/kg i.p.): 38503.5 ng/ml*h^2 | Tlag ([1]; plasma NCA, 10 mg/kg i.p.): 0 h | C max,brain,u ([1]; unbound brain, 10 mg kg^-1 i.p., in vivo brain binding assumed at least 3-fold greater than homogenate): < 26 nM | Decline of mean brain level from peak [1, 9]: 31% | Decline of mean plasma concentration from peak [1, 9]: 56% | Decline of mean plasma concentration from peak ([1]; within 2 hours, 10 mg kg^-1 i.p.): 92% | Decline of brain levels [1, 10]: at least 75% | Decline of mean plasma concentration from peak [1, 10]: at least 80% | μ antagonism, duration (μ opioid receptor): approximately 4 hours | μ antagonism, time of peak (μ opioid receptor): approximately 30 minutes | solubility (Water solubility): > 45 mM | logD ([2]; pH 7.4, pooled mixing times 1, 10, 30 min): 1.53 | logD at 1 min ([2]; mixing time 1 min, octanol/PBS pH 7.4): 1.43 | logD at 10 min ([2]; mixing time 10 min, octanol/PBS pH 7.4): 1.59 | logD at 30 min ([2]; mixing time 30 min, octanol/PBS pH 7.4): 1.57 | Detection in mouse brain after administration [3]: up to 21 days

Reference: PMC3411462, “Long-acting κ opioid antagonists nor-BNI, GNTI and JDTic: pharmacokinetics in mice and lipophilicity” (BMC Pharmacology, 2012)
